Article PMC11744668, “2-Cyanopyrimidine-Containing Molecules for N-Terminal Selective Cyclization of Phage-Displayed Peptides” (ACS Chemical Biology, 2025)

How the values were obtained:
[1] = Peptide cyclization kinetics with model peptide CGK-5; conditions: 500 μM CGK-5, 550 μM linker, RT; for cyclization of CGK-5 (in words): ABC buffer pH 7.4, 1 mM TCEP, 2 h, LC-MS; for half-life of the cyclization reaction with CGK-5: ammonium bicarbonate (ABC) buffer, TCEP, HPLC, one-phase association, mean ± 95% CI, at least three independent experiments
Source text: While pCAmCP and mCAmCP gave efficient cyclization of the peptide fusion of sfGFP, we looked to further investigate the specificity of the reaction using peptide kinetic assays. To do this, we first established reactivity of the compounds with a model peptide (CGK-5, Figures 3A and S16) that was composed of two cysteines flanking a region tuned for solubility in buffer (GGKGG) and with a tryptophan residue on the C-terminus for UV absorbance. […] To test the specificity of the reaction for the N-terminal cysteine, we synthesized a peptide analogue (CGK-5Abu, Figures 3D–F and S17) that contained 2-aminobutyric acid in place of the N-terminal cysteine. […] Since these reactions occurred at 500 μM of peptide to allow for analysis on the HPLC, we envision this difference will likely be exaggerated when using lower peptide/protein concentrations. Although it is unlikely at neutral pH, the chloroacetamide moiety can possibly react with nucleophilic amino acids other than cysteine. To defuse this concern, we designed a peptide containing a variety of possibly nucleophilic residues (serine, arginine, tyrosine, histidine, and lysine, but not an internal cysteine) adjacent to the N-terminal cysteine (BCP, Figure S18) and let the peptide react with pCAmCP or mCAmCP. […] On the other hand, peptides that contained an internal cysteine were nearly completely reacted with the chloroacetamide after less than 2 h at the same concentrations (Figure 3B,C). This indicates high specificity for the chloroacetamide reacting with an internal cysteine in comparison to other nucleophilic residues at pH 7.4. […] It could be that the side reaction with TCEP may help mask the chloroacetamide after long incubation periods to prevent it from reacting with less reactive nucleophiles.
The peptide (CGK-5 or CGK-5Abu, 5 mM stock in water) was diluted to 500 μM in ammonium bicarbonate buffer (50 mM, pH 7.5) containing 1.2 mM TCEP. Following dilution of the peptide, the organic linker (10 mM in DMSO) was added to a final concentration of 550 μM. The reaction mixture was incubated while being shaken at RT. At each time point (5, 10, 15, 30, 45, 60, 120, and 240 min), 5 μL of reaction mixture was removed, and the reaction was quenched by the addition of 5 μL of 100 mM cysteine. Following dilution with 20 μL of water, the sample was then analyzed on a Shimadzu HPLC with an LCMS-2020 mass spectrometer attached (10–40% ACN gradient in H2O over 6 min, 0.1% formic acid, 1 mL/min flow rate, Shimadzu C18 250 × 4.6 mm, 5 μm). Peaks corresponding to the cyclized and unreacted forms were then integrated on the Shimadzu LabSolutions software, plotted in GraphPad Prism, and fitted using a one-phase association fitting parameter to determine reaction half-lives.

CA5C-sfGFP = test: Cyclization of CA5C-sfGFP with linkers (LC-ESI-MS); conditions: 100 μM linker, PBS pH 7.4, 1 mM TCEP; for cyclization of CA5C-sfGFP: 3 h, 22 °C (RT), 500 nM protein; for cyclization of CA5C-sfGFP, optimized (in words): 16 h
Procedure: The designed organic linkers were tested for their ability to cyclize a CA5C peptide expressed as an N-terminal fusion to sfGFP (CA5C-sfGFP). Following reduction of the protein with 1 mM TCEP for 30 min, 100 μM compounds were reacted with the reduced CA5C-sfGFP for 3 h in PBS (pH 7.4). Following the reaction, the protein was analyzed via electrospray ionization mass spectrometry (ESI-MS) analysis to determine the desired adduct and any potential side reactions that occurred. […] This is likely due to the electron withdrawing effects of the nitrogen atoms adjacent to the nitrile in the 2-cyanopyrimidine derivatives. […] Following previously established Bayesian deconvolution of the mass spectra,[23] protein masses from each reaction (MW = 28,399 Da) corresponded well with that of the expected cyclic product (MW = 28,399 Da). […] This observed mass matches a TCEP-conjugated product resulting from a previously reported competing phospha-Michael addition of TCEP to the acrylamide moiety.[24] This product has a TCEP-functionalized linker that is nonreactive toward the internal cysteine (Figure 2A,B). Following these initial studies, we then further optimized the cyclization of CA5C-sfGFP using pCAmCP and mCAmCP by varying the reaction time, temperature, and concentration of linkers (Figure 2C).
Purified CA5C-sfGFP was diluted to 500 nM in PBS (pH 7.4) containing 1 mM TCEP and left to incubate for 30 min at 37 °C. Linker (100 μM final concentration) or equivalent amounts of DMSO were then added to the solution, and it reacted at varying times (3 or 16 h) and temperatures (22 or 37 °C). All initial tests for reactivity were performed at 22 °C for 3 h, while linkers pCAmCP and mCAmCP were optimized with the additional conditions. The reaction mixtures were then concentrated and exchanged to ammonium bicarbonate (50 mM, pH 8.0) using an Amicon centrifugal filter (MWCO: 10 kDa). Samples were analyzed using a QExactive Orbitrap LC–MS System (Thermo Fisher) and deconvoluted using UniDec software.[23]

[2] = Specificity of linker reaction with BCP peptide (nucleophilic residues, no internal cysteine); conditions: 500 µM BCP, 550 µM linker, 50 mM NH4HCO3, 1.2 mM TCEP, pH 7.5, 4 h
Source text: While pCAmCP and mCAmCP gave efficient cyclization of the peptide fusion of sfGFP, we looked to further investigate the specificity of the reaction using peptide kinetic assays. To do this, we first established reactivity of the compounds with a model peptide (CGK-5, Figures 3A and S16) that was composed of two cysteines flanking a region tuned for solubility in buffer (GGKGG) and with a tryptophan residue on the C-terminus for UV absorbance. […] To test the specificity of the reaction for the N-terminal cysteine, we synthesized a peptide analogue (CGK-5Abu, Figures 3D–F and S17) that contained 2-aminobutyric acid in place of the N-terminal cysteine. […] Since these reactions occurred at 500 μM of peptide to allow for analysis on the HPLC, we envision this difference will likely be exaggerated when using lower peptide/protein concentrations. Although it is unlikely at neutral pH, the chloroacetamide moiety can possibly react with nucleophilic amino acids other than cysteine. To defuse this concern, we designed a peptide containing a variety of possibly nucleophilic residues (serine, arginine, tyrosine, histidine, and lysine, but not an internal cysteine) adjacent to the N-terminal cysteine (BCP, Figure S18) and let the peptide react with pCAmCP or mCAmCP. […]

Compound | cyclization of CGK-5 (in words) [1] | half-life of the cyclization reaction with CGK-5 [1] | cyclization of CA5C-sfGFP (CA5C-sfGFP) | cyclization of CA5C-sfGFP, optimized (in words) (CA5C-sfGFP) | specificity of chloroacetamide toward nucleophilic residues other than cysteine (in words) [2]
N#Cc1nccc(NC(=O)CCl)n1 [mCAmCP, 2-chloro-N-(2-cyanopyrimidin-4-yl)acetamide] | nearly complete cyclization of the peptide after 2 h | 13 ± 3 min | ~70% | nearly complete cyclization of CA5C-sfGFP with no significant side reactions observed | the chloroacetamide was left intact, with the only observed side reaction being the addition of TCEP to the chloroacetamide
N#Cc1ncc(NC(=O)CCl)cn1 [pCAmCP, 2-chloro-N-(2-cyanopyrimidin-5-yl)acetamide] | nearly complete cyclization of the peptide after 2 h | 23 ± 5 min | 50% | nearly complete cyclization of CA5C-sfGFP with no significant side reactions observed | the chloroacetamide was left intact, with the only observed side reaction being the addition of TCEP to the chloroacetamide
